Target: hCB1 (Homo sapiens, UniProt P21554)
Experiment: In vitro binding assay using hCB1-CHO membranes, [3H]-CP-55,940 displacement (Protocol II)
Parameters: expressed in transfected cells; host or cells: CHO (hCB1-CHO, generated in-house)
Summary of the method: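 Incubated 1 h at 37° C, stopped by rapid vacuum filtration on PEI-precoated GF/B filters, bound radioactivity counted by liquid scintillation.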

hCB1, sequence (P21554 whole entry): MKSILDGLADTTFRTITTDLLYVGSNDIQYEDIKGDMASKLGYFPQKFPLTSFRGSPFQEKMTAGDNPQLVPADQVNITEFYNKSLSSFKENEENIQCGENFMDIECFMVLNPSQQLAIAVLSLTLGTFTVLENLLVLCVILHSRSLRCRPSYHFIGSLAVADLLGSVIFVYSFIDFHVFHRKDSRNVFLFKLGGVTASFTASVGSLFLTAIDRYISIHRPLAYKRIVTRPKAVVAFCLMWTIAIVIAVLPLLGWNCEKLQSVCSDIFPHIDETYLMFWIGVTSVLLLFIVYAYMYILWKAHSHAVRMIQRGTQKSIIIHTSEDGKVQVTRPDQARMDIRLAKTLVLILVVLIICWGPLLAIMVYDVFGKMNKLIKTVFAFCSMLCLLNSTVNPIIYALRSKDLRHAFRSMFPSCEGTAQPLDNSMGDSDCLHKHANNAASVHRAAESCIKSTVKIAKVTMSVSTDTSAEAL

## O=C(NN1CCCCC1)c1nn(-c2ccc(Cl)cc2)c2c1C1CC3CC(C1)CC2C3 [Example 140, N(7)-Piperidino-5-(4′-chlorophenyl)-5,6-diazatetracyclo[7.3.1.1^3,11.0^4,8]tetradeca-4(8)-6-diene-7-carboxamide]
  % Displacement Protocol II: 57.85%
